Data reported in patent publication US10440974B2, “Methionine-rich composition for feeding animals” (Evonik Degussa GmbH, priority 2009, dated 2019).
Converted amounts (≈) assume the structure as drawn.

Legend:
physchem = experiment: physchem
Description: The third step consists in crystallizing the methionine so as to recover the crude methionine in solid form. This crystallization step can be carried out by means of technology chosen from the group consisting of crystallization by cooling, crystallization by evaporation-crystallization and adiabatic crystallization. The applicant company recommends using evaporation-crystallization. If evaporation-crystallization is selected, the applicant company recommends pre-concentrating the crude methionine solution by vacuum evaporation using a falling-film evaporator in order to approach supersaturation. The pre-concentrated solution is therefore transferred into a crystallizer of Draft tube type, for example, so as to be further concentrated and crystallized therein. […] Under these conditions, and by virtue of the removal of the soluble impurities, the solid methionine crystallizes in the form of spongy spheres which are easy to separate from the mother liquors.

broiler chickens = tested on: broiler chickens
Procedure: The crude methionine previously obtained in solid form is added to a basic feed for broiler chickens.
The basic feed has the following composition:
The animals are divided up into groups and fed with the basic feed as control, or with a feed supplemented with crude methionine according to the invention, and then weighed at 1 day, 14 days and 28 days.

| solubility (physchem; 35 °C) | supersaturation (physchem; at 50° C.) | Structure (SMILES) | optimum efficiency, added methionine (broiler chickens; added to basic feed) | optimum efficiency, methionine in the final feed (broiler chickens; basic feed has a methionine content of about 0.29%) |
| --- | --- | --- | --- | --- |
| ~70 mg/mL (≈ 469 mM) | 80 g/L | CSCC[C@H](N)C(=O)O [methionine, L-Methionine] | – | – |
| – | – | CSCCC(N)C(=O)O (racemic) [DL-methionine of chemical origin, DL-methionine] | approximately 0.19% | approximately 0.48% |
